Data from US12295937B2, “Psychoactive medicines and their use for treating psychiatric and neurological conditions and disorders” (Transcend Therapeutics, Inc., priority 2021, dated 2025).

Tests used:
DAT = DAT (Rattus norvegicus, UniProt P23977); assay: [3H]DA uptake inhibition in rat brain synaptosomes; conditions: read-out: Reuptake inhibition: IC50; rat brain synaptosomes
[1] = tested on: myelin basic protein (MBP); assay: Myelin basic protein immunohistochemistry in amygdala; format: in vivo, rat; conditions: 10 mg/kg IP, 24 h
Method: Immunohistochemistry: The in-life portion of the study was conducted at WuXi Apptec (Cranbury, NJ). Sectioning and staining of brains took place at Neuroscience Associates (NSA, Knoxville, TN). […] Brains were post-fixed in PFA before shipment to NSA for processing and staining. Hemisected brains were mounted, sectioned and stained using standard protocols with myelin-basic protein primary antibody (MBP SMI-99, 1:5000, Biolegend, San Diego, CA) and anti-mouse biotinylated secondary antibody (BA-2001, Vector Laboratories, Newark, CA). Slides were imaged using a Huron Digital Pathology TissueScope LE120 whole slide scanning system. 20× objective was used with a 0.4 μm/pixel resolution.

NET = NET (Rattus norvegicus, UniProt Q63380); assay: [3H]NE release from rat brain synaptosomes; format: biochemical; set-up: from tissue; synaptosomes for uptake and release; conditions: rat brain synaptosomes; read-out: Neurotransmitter release: EC50
Chain of NET (Q63380 1-617): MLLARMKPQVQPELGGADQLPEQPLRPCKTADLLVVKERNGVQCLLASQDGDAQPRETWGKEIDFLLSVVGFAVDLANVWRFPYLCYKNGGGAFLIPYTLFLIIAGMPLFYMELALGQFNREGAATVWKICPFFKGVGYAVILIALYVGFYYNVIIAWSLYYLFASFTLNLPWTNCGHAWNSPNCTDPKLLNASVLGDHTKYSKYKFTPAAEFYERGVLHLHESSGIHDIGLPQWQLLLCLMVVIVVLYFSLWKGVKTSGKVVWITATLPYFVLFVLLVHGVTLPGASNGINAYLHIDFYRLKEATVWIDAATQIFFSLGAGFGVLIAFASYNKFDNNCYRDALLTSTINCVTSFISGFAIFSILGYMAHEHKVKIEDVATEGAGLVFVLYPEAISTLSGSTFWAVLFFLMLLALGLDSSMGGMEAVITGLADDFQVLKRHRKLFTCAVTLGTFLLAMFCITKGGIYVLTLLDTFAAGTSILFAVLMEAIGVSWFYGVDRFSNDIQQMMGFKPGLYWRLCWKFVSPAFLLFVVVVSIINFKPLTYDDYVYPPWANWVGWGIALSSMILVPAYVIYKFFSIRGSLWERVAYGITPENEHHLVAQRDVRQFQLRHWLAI
Method: Test compounds and synaptosomes were prepared as described for uptake inhibition assays. Synaptosomes treated with [^3H]5-HT, [^3H]DA or [^3H]NE were loaded onto filter chambers containing GF/C filters and placed in a superfusion system. Oxygenated Krebs buffer was perfused through the chambers at a rate of 1.5 mL/minute at 35° C. using either an 8-channel or a 12-channel peristaltic pump. Trapped air bubbles were removed from the filters prior to collecting fractions to ensure an even flow over the synaptosomal bed. After a superfusion period of 45 minutes, 2 basal fractions were collected followed by 6 fractions following the addition of the test drug. […] Scintillation cocktail was added, and the filters counted to determine residual radioactivity. Drug-evoked release of neurotransmitter was calculated by subtracting the average of the two basal fractions (collected prior to the drug addition), from the four fractions collected in the presence of drug. The drug-evoked release was then expressed as a percentage of the basal release. Potassium-evoked release was calculated by subtracting the average of two fractions collected prior to the addition of high KCl buffer from that in the two fractions following addition of high KCl buffer. Potassium-stimulated release was calculated as a percentage of basal release. […]

Open field test (OFT) = format: in vivo, rat; conditions: 5 or 15 mg/kg IP, 30 minutes before testing
Method: Method: Consecutive beam breaks and/or video-tracking of time spent in the center versus periphery of the open field are measured. Also measured are parameters such as distance traveled and ambulatory activity (horizontal and vertical) for the duration of the test session.
The open field test (OFT) capitalizes on a rodent's innate fear of open spaces to assess anxiety-like behavior. More time spent in the center of an open field reflects an anxiolytic (anti-anxiety) effect.
Locomotor activity was also measured in the OFT.
To investigate whether MBDB has an anti-anxiety (anxiolytic) effect, rats were dosed with MBDB (0.5-30 mg/kg, IP) or vehicle (saline) and 30-minutes later were tested in the open field for 30 minutes. This anxiety test capitalizes on a rodents' innate fear of wide-open spaces and propensity to hug the walls when placed into the open field. Therefore, a drug that increases the time spent in the center of the open field has anxiolytic activity and predicts utility for treating anxiety in humans.

[2] = molecular target: Human serotonin 5HT2B receptor (Homo sapiens, UniProt P41595); assay: Competitive radioligand binding to 5HT2B receptor membranes
Chain of Human serotonin 5HT2B receptor (P41595 whole entry): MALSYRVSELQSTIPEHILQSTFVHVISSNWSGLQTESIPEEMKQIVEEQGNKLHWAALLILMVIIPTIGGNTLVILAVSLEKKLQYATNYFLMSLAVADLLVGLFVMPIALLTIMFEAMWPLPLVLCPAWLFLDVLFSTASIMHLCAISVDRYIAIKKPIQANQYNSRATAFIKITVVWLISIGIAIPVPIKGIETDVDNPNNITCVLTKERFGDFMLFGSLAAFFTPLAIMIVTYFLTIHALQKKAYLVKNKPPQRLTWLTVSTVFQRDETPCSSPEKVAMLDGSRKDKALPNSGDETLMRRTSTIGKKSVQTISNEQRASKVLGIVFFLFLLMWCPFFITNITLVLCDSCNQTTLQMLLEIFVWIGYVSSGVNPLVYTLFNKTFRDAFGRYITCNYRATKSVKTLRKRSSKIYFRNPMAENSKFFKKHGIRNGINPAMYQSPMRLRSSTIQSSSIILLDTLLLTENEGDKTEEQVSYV
Method: Human serotonin 5HT2B receptor membrane preparations were divided into aliquots. On the day of the assay, membranes were diluted at 1:200 in incubation buffer. […] To each well was added 150 μL membrane preparation, 50 μL test compound, non-specific compound, or buffer alone, as well as 50 μL radioligand. The plate was incubated at 35° C. for 90 minutes with gentle agitation. […] For each concentration of drug, non-specific binding was subtracted from total binding to give specific binding. […] Ki was subsequently calculated using the ChengPrusoff equation.

Chain of DAT (P23977 whole entry): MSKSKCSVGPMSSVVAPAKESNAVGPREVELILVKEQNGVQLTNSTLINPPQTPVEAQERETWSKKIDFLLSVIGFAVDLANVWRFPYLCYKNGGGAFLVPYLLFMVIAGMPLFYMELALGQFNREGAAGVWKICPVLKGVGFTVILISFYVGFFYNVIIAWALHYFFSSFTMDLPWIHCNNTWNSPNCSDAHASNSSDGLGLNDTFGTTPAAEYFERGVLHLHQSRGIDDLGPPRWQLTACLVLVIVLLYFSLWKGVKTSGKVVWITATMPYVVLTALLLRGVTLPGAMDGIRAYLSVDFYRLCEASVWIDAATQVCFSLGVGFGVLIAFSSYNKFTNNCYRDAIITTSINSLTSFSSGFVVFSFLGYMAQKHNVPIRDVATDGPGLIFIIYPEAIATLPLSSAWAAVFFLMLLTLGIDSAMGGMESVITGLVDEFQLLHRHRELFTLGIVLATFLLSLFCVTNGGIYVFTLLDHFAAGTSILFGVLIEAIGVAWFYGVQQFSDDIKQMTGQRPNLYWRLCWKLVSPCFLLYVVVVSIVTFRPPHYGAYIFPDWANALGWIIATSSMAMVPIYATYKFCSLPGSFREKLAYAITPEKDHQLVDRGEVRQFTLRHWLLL

## CNC(C)C(=O)c1ccc2c(c1)OCO2 (stereo not drawn) [Methylone, 3,4-methylenedioxy-N-methylcathinone]
DAT
  IC50: 2300 nM
[1]
  MBP in basolateral and central nuclei of the amygdala vs. vehicle: significant reduction in MBP
NET
  EC50: 330 nM
Open field test (OFT)
  Time spent in the center of the open field vs. vehicle: significantly increases the time spent in the center of the open field
[2]
  IC50: 4.28 µM
  Ki: 3.75 µM
